Assay results taken from patent US5798372A, “Method for preventing onset of restenosis after angioplasty employing a retinoid” (Allergan, priority 1997, dated 1998).
Each block holds one compound with its values, some of them ahead of it.

How the values were obtained:
[1] = tested on: RAR and RXR receptor; assay: RAR vs RXR agonist activity (retinoid selectivity); format: biochemical; settings: Table 2; RAR selective agonist preferably has RAR vs RXR activity ratio of at least 5
From the text: (Of course, pan agonists show agonist activity at both the RAR and RXR receptor.)
A pan agonist will have activity at both of the RAR and RXR receptor, e.g. similar potency at the RAR and RXR receptor.

[2] = tested on: smooth muscle cells (canine aorta); assay: Serum (1%)-induced smooth muscle cell proliferation, 3H-thymidine incorporation; format: cell-based; settings: for IC50: Canis lupus familiaris; for rank order potency on smooth muscle cells: from Table 2
Procedure: (§1) The effect of 1% serum on DNA synthesis by endothelial or smooth muscle cells using ^3 H-thymidine incorporation was measured. For measuring the effectiveness of retinoids in inhibiting endothelial or smooth muscle cell proliferation induced by certain mitogens, i.e., serotonin or β-FGF the indicated concentrations were added to the media instead of 1% serum. Primary cells isolated from canine aorta were used for these studies. Unlike the typical cell lines (e.g. NIH 3T3 cells, etc.) 6-7 weeks are required to isolate and grow these primary cells in sufficient number to perform a single experiment. For the following studies, the primary cells (passages 2-4) were plated on 35×10 mm tissue culture dishes in 10% fetal bovine serum (FBS) and incubated. After 72 hours of growth the medias was replaced with 0.1% FBS for synchronization and incubated for additional 72 hours. Then 1% serum was added and incubated for 20 hours followed by the addition of 1μCi of ^3 H-thymidine. Four hours after the addition of 3H-thymidine the DNA was precipitated and the amount of ^3 H-thymidine incorporated was measured. This value is reported as the serum or serotonin or β-FGF stimulated value for cellular proliferation and is expressed as a percentage of baseline ^3 H-thymidine incorporation.
(§2) To examine the antiproliferative effect of retinoids, they were dissolved in 100% ethanol and then added at the indicated final concentrations. The compounds were added at the time of adding 1% serum or serotonin or β-FGF to stimulate the cells. (The maximal final concentration of ethanol in culture media was 1% which is non-cytotoxic to endothelial or smooth muscle cells). After 20 hours of incubation with retinoids and 1% serum or serotonin or β-FGF, the ^3 H-thymidine incorporation was measured.
(§3) In this experimental dosages ranging between 0.01 and 100 μM were evaluated for the effect of AGN 191183 on cell growth.
(§4) The other retinoids, disclosed above, were also tested for their effect on smooth muscle and endothelial cell growth at the same dosages as for AGN 191183. Table 2 reports the ED50 for each of these retinoids.

[3] = tested on: endothelial cells (canine aorta); assay: Serum (1%)-induced endothelial cell proliferation, 3H-thymidine incorporation; format: cell-based; settings: for order of potency for endothelial cells: from Table 2
Procedure: as §1, §2, §3, §4

[4] = tested on: smooth muscle cells (canine aorta); assay: Serotonin-induced smooth muscle cell proliferation, 3H-thymidine incorporation; format: cell-based; settings: Canis lupus familiaris, Table 3, read-out: ED50 FOR SMOOTH MUSCLE CELLS, Serotonin
Procedure: as §1
as §2, with “(The maximal final concentration of ethanol in culture media was 1% which is non-cytotoxic to endothelial or smooth muscle cells).” left out
(§5) Certain of the retinoids were then tested for mitogen-induced cellular proliferation, utilizing serotonin (5HT) and β-FGF as such mitogens. In this testing, as reported in Table 3, below, the same dosages were evaluated for their effect on mitogen-induced cellular proliferation (The results are reported as ED50 and compared to the ED50 for serum-induced smooth muscle and endothelial cell growth).

[5] = tested on: endothelial cells (canine aorta); assay: β-FGF-induced endothelial cell proliferation, 3H-thymidine incorporation; format: cell-based; settings: Canis lupus familiaris, Table 3, read-out: ED50 FOR ENDOTHELIAL Cells, β-FGF
Procedure: as §1
as §2, with “(The maximal final concentration of ethanol in culture media was 1% which is non-cytotoxic to endothelial or smooth muscle cells).” left out
as §5

[6] = tested on: smooth muscle cells (canine aorta); assay: β-FGF-induced smooth muscle cell proliferation, 3H-thymidine incorporation; format: cell-based; settings: Canis lupus familiaris, Table 3, read-out: ED50 FOR SMOOTH MUSCLE CELLS, β-FGF
Procedure: as §1
as §2, with “(The maximal final concentration of ethanol in culture media was 1% which is non-cytotoxic to endothelial or smooth muscle cells).” left out
as §5

[7] = tested on: endothelial cells (canine aorta); assay: Serotonin-induced endothelial cell proliferation, 3H-thymidine incorporation; format: cell-based; settings: Canis lupus familiaris, Table 3, read-out: ED50 FOR ENDOTHELIAL Cells, Serotonin
Procedure: as §1
as §2, with “(The maximal final concentration of ethanol in culture media was 1% which is non-cytotoxic to endothelial or smooth muscle cells).” left out
as §5

[8] = tested on: smooth muscle cells (canine aorta); assay: Serum (1%)-induced smooth muscle cell proliferation, 3H-thymidine incorporation; format: cell-based
[9] = tested on: endothelial cells (canine aorta); assay: Serum (1%)-induced endothelial cell proliferation, 3H-thymidine incorporation; format: cell-based; settings: Canis lupus familiaris, 1% serum, 100% = 1739 ± 71 cpm/10^6 cells, serum stimulated 1246 ± 91, read-out: % ENDOTHELIAL (cell growth, % of baseline 3H-thymidine incorporation)
[10] = serum induced, Table 2, read-out: ED50 FOR SMOOTH MUSCLE CELLS (concentration at which proliferation is inhibited by 50%)
[11] = Canis lupus familiaris, Endothelial cell, serum induced, Table 2, read-out: ED50 FOR ENDOTHELIAL CELL (concentration at which proliferation is inhibited by 50%)
[12] = serum induced, Table 3, read-out: ED50 FOR SMOOTH MUSCLE CELLS, Serum
[13] = read-out: ED50 FOR SMOOTH MUSCLE CELLS (concentration at which proliferation is inhibited by 50%)
[14] = Canis lupus familiaris, Endothelial cell, read-out: ED50 FOR ENDOTHELIAL CELL (concentration at which proliferation is inhibited by 50%)

Structure (SMILES): CC1=C(/C=C/C#Cc2ccc(C(=O)O)cc2)C(C)(C)CCC1 [AGN 190121, (E)-4-[4-(2,6,6-trimethyl-1-cyclohexen-1-yl)but-2-en-1-ynyl] benzoic acid]
- SELECTIVITY [1]: RAR
- IC50 [2, 10]: 46 µM
- IC50 [3, 11]: 23 µM

Structure (SMILES): CC1=C(/C=C/C(C)=C/C=C/C(C)=C\C(=O)O)C(C)(C)CCC1 [AGN 190013, (2Z,4E,6E,8E)-3,7-dimethyl-9-(2,6,6-trimethyl-1-cyclohexen-1-yl)-2,4,6,8-nonatetraenoic acid]
- IC50 [4]: 5 µM
- IC50 [5]: 0.009 µM
- IC50 [6]: > 100 µM
- IC50 [2, 12]: 7.4 µM
- IC50 ([3]; Canis lupus familiaris, Endothelial cell, serum induced, Table 3, read-out: ED50 FOR ENDOTHELIAL Cells, Serum): 31.5 µM
- IC50 [7]: 0.0092 µM

Structure (SMILES): CC1=C(/C=C/C(C)=C\C=C\C(C)=C\C(=O)O)C(C)(C)CCC1 [AGN 192013, (2E,4E,6Z,8E)-3,7-dimethyl-9-(2,6,6-trimethyl-1-cyclohexen-1-yl)-2,4,6,8-nonatetraenoic acid, reference compound]
- IC50 [4]: 0.41 µM
- IC50 [5]: 26.5 µM
- IC50 [6]: > 100 µM
- IC50 [2, 10]: > 100 µM
- IC50 [2, 12]: > 100 µM
- IC50 [3, 11]: 2.25 µM
- order of potency for endothelial cells ([3]; serum induced): AGN 192013>AGN 190205=AGN 191183
- IC50 [7]: 0.16 µM

Structure (SMILES): C/C(=C\c1ccc(C(=O)O)cc1)c1ccc2c(c1)C(C)(C)CCC2(C)C [AGN 191183, (E)-4-[2-(5,6,7,8-tetrahydro-5,5,8,8-tetramethyl-2-naphthalenyl)-1-propen-1-yl] benzoic acid]
- activity at 0.01 µM ([8]; Canis lupus familiaris, 0.01 μM, 1% serum, 100% = 2108 ± 165 cpm/10^6 cells, serum stimulated 725 ± 170, read-out: % SMOOTH MUSCLE (cell growth, % of baseline 3H-thymidine incorporation)): 376 ± 17%
- activity at 0.05 µM ([8]; Canis lupus familiaris, 0.05 μM, 1% serum, 100% = 2108 ± 165 cpm/10^6 cells, serum stimulated 725 ± 170, read-out: % SMOOTH MUSCLE (cell growth, % of baseline 3H-thymidine incorporation)): 348 ± 95%
- activity at 0.1 µM ([8]; Canis lupus familiaris, 0.1 μM, 1% serum, 100% = 2108 ± 165 cpm/10^6 cells, serum stimulated 725 ± 170, read-out: % SMOOTH MUSCLE (cell growth, % of baseline 3H-thymidine incorporation)): 219 ± 22%
- activity at 0.5 µM ([8]; Canis lupus familiaris, 0.5 μM, 1% serum, 100% = 2108 ± 165 cpm/10^6 cells, serum stimulated 725 ± 170, read-out: % SMOOTH MUSCLE (cell growth, % of baseline 3H-thymidine incorporation)): 205 ± 17%
- activity at 1 µM ([8]; Canis lupus familiaris, 1 μM, 1% serum, 100% = 2108 ± 165 cpm/10^6 cells, serum stimulated 725 ± 170, read-out: % SMOOTH MUSCLE (cell growth, % of baseline 3H-thymidine incorporation)): 185 ± 10%
- activity at 5 µM ([8]; Canis lupus familiaris, 5 μM, 1% serum, 100% = 2108 ± 165 cpm/10^6 cells, serum stimulated 725 ± 170, read-out: % SMOOTH MUSCLE (cell growth, % of baseline 3H-thymidine incorporation)): 182 ± 3%
- activity at 10 µM ([8]; Canis lupus familiaris, 10 μM, 1% serum, 100% = 2108 ± 165 cpm/10^6 cells, serum stimulated 725 ± 170, read-out: % SMOOTH MUSCLE (cell growth, % of baseline 3H-thymidine incorporation)): 126 ± 18%
- activity at 50 µM ([8]; Canis lupus familiaris, 50 μM, 1% serum, 100% = 2108 ± 165 cpm/10^6 cells, serum stimulated 725 ± 170, read-out: % SMOOTH MUSCLE (cell growth, % of baseline 3H-thymidine incorporation)): 137 ± 25%
- activity at 100 µM ([8]; Canis lupus familiaris, 100 μM, 1% serum, 100% = 2108 ± 165 cpm/10^6 cells, serum stimulated 725 ± 170, read-out: % SMOOTH MUSCLE (cell growth, % of baseline 3H-thymidine incorporation)): 77 ± 28%
- SELECTIVITY [1]: RAR
- activity at 0.1 µM ([9]; 0.1 μM): 959 ± 115%
- activity at 0.5 µM ([9]; 0.5 μM): 840 ± 108%
- activity at 1 µM ([9]; 1 μM): 815 ± 171%
- activity at 5 µM ([9]; 5 μM): 686 ± 40%
- activity at 10 µM ([9]; 10 μM): 406 ± 32%
- activity at 50 µM ([9]; 50 μM): 17 ± 2%
- activity at 100 µM ([9]; 100 μM): 9.3 ± 2.3%
- IC50 [2, 13]: 0.03 µM
- rank order potency on smooth muscle cells ([2]; serum induced): AGN 191659=191183>AGN 192327>AGN 191985>AGN 192326
- effectiveness for inhibiting the growth of smooth muscle and endothelial cells ([2]; smooth muscle and endothelial cells (also A2), serum induced): most effective retinoid for inhibiting the growth of both smooth muscle and endothelial cells
- IC50 [3, 14]: 6.15 µM
- order of potency for endothelial cells ([3]; serum induced): AGN 192013>AGN 190205=AGN 191183

Structure (SMILES): CC1(C)CCC(C)(C)c2cc(C#Cc3ccc(C(=O)O)cc3)ccc21 [AGN 190205, 4-[2-(5,6,7,8-tetrahydro-5,5,8,8-tetramethyl-2-naphthalenyl)ethynyl] benzoic acid]
- SELECTIVITY [1]: RAR
- IC50 [2, 13]: 8.95 µM
- IC50 [3, 14]: 6.8 µM
- order of potency for endothelial cells ([3]; serum induced): AGN 192013>AGN 190205=AGN 191183

Second part, led by results:

- SELECTIVITY [1]: RAR
Structure (SMILES): CC(C)(C)c1ccc(C#Cc2ccc(C(=O)O)cn2)cc1OC1CCCCO1 (stereo not shown) [AGN 192327, 6-[2-(3-(2-tetrahydropyranyl)oxy)-(4-(1,1-dimethylethyl)phenyl)ethynyl]-3-nicotinic acid]
- IC50 [2, 10]: 4 µM
- rank order potency on smooth muscle cells ([2]; serum induced): AGN 191659=191183>AGN 192327>AGN 191985>AGN 192326
- IC50 [3, 11]: 29 µM

- SELECTIVITY [1]: RXR
Structure (SMILES): C/C(=C\c1cc(C(=O)O)cs1)c1cc2c(cc1C)C(C)(C)CCC2(C)C [AGN 191701, reference compound]
- IC50 [8, 10]: 18 µM
- IC50 ([3]; serum induced, Table 2, read-out: ED50 FOR ENDOTHELIAL CELL (concentration at which proliferation is inhibited by 50%)): 28.5 µM

- SELECTIVITY [1]: RAR
Structure (SMILES): CC(C)(C)c1ccc(C#Cc2ccc(C(=O)O)cc2)cc1OC1CCCCO1 (stereo not shown) [AGN 192326, 4-[2-(3-(2-tetrahydropyranyl)oxy)-(4-(1,1-dimethylethyl)phenyl)ethynyl]benzoic acid]
- IC50 [2, 10]: 6.5 µM
- rank order potency on smooth muscle cells ([2]; serum induced): AGN 191659=191183>AGN 192327>AGN 191985>AGN 192326
- IC50 [3, 11]: 16.5 µM

- SELECTIVITY [1]: PAN AGONIST
Structure (SMILES): C/C(=C\c1ccc(C(=O)O)s1)c1cc2c(cc1C)C(C)(C)CCC2(C)C [AGN 191659, (E)-5-[2-(5,6,7,8-tetrahydro-3,5,5,8,8-pentamethyl-2-naphthalenyl)-1-propen-1-yl] thiophene-2-carboxylic acid]
- IC50 [2, 10]: 0.038 µM
- rank order potency on smooth muscle cells ([2]; serum induced): AGN 191659=191183>AGN 192327>AGN 191985>AGN 192326
- IC50 [3, 11]: 39 µM
